# From patent publication US10463670B2, “Use of non-peptide NK1 antagonists in a predetermined dose for the treatment of cancer” (SERVICIO ANDALUZ DE SALUD, priority 2013, dated 2019)
# “Also recorded” adds a separate entry of the source.
# Legend:
# Human glioma GAMG = assay: MTS cell proliferation, nanomolar antagonist, GAMG; format: cell-based; details: Aprepitant 1, 5 and 7 nM, vs cells grown in the absence of antagonist, time dependant
# Procedure: (§1) Cell cultures of various commercial tumour cell lines stated in table 13 were used. [table] […] The number of cells was quantified using a Coulter counter. […] The culture plates were grown in the presence of increasing concentrations of non-peptide NK1 receptor antagonists. To obtain the staining in the proliferation assays, 20 μl of MTS were added to each one of the wells of the cell culture plates 90 minutes before reading the samples in a multiscan spectrophotometer (TECAN Spectra classic, Barcelona, Spain) at 492 nm (assay wavelength) and 690 nm (reference wavelength). The different doses were tested in duplicate and each experiment was performed in triplicate. The antagonist Aprepitant was used at the following concentrations: 1 nanomolar -nM-, 5 nanomolar -nM- and 7 nanomolar -nM-. […] As proliferation control, the cells were grown in the absence of said antagonist. This is expressed in FIGS. 1 to 10.
# [1] = system: human neuroblastoma; reference KELLY; assay: Neuroblastoma KELLY tumours implanted s.c. in nude mice, Aprepitant alone; format: in vivo
# Procedure: (§2) Immunocompromised female mice, 5-6 weeks of age were used, nu/nu Balb/c nude mice, provided by Harlan Iberica Barcelona (Spain). They were kept at 24° C. and in sterile conditions with food and water “ad libitum”. They were injected with 2×10^7 tumour cells, corresponding to cancer (human lung cancer, reference HCC-44 supplied by DSMZ) in 200 μl of PBS subcutaneous route. The tumour size was measured and the mice were evaluated for their state of health and weight daily. The mice were randomized in nine groups when the tumours reached a volume of 75 mm^3. One of the groups was treated with 200 μl of placebo (control group) and the eight remaining groups with doses of 10 (group 1), 20 (group 2), 30 (group 3), 40 (group 4), 50 (group 5), 60 (group 6), 70 (group 7) and 80 (group 8) mg per kilogram of weight and day of the NK1 receptor antagonist Aprepitant. 3 animals were treated per group, during 28 days. All the mice were sacrificed at the end of the experiment.
# (§3) Immunocompromised female mice, 5-6 weeks of age were used, in the same conditions as explained in example 1. They were injected with 2×10^7 tumour cells, corresponding to an embryonic tumour (human neuroblastoma; reference KELLY; supplied by DSMZ) in 200 μl of PBS by subcutaneous route. The tumour size was measured and the mice were evaluated for their state of health and weight daily. The mice were randomized in nine groups when the tumours reached a volume of 75 mm^3. One of the groups was treated with 200 μl of placebo (control group) and the eight remaining groups with doses of 10 (group 1), 20 (group 2), 30 (group 3), 40 (group 4), 50 (group 5), 60 (group 6), 70 (group 7) and 80 (group 8) mg per kilogram of weight and day of the NK1 receptor antagonist Aprepitant. 3 animals were treated per group, during 28 days. All the mice were sacrificed at the end of the experiment.
# Human breast cancer MT-3 = assay: MTS cell proliferation, nanomolar antagonist, MT-3; format: cell-based; details: Aprepitant 1, 5 and 7 nM, vs cells grown in the absence of antagonist, time dependant
# Procedure: as §1
# [2] = system: human melanoma; reference MEL-HO; assay: Melanoma MEL-HO tumours implanted s.c. in nude mice, Aprepitant alone; format: in vivo
# Procedure: as §2
# as §3, with “a melanoma cell line” for “an embryonic”, “melanoma;” for “neuroblastoma;”, “MEL-HO;” for “KELLY;”
# Human melanoma MEL HO = assay: MTS cell proliferation, nanomolar antagonist, MEL HO; format: cell-based; details: Aprepitant 1, 5 and 7 nM, vs cells grown in the absence of antagonist, time dependant
# Procedure: as §1
# Human lung cancer A-427 = assay: MTS cell proliferation, nanomolar antagonist, A-427; format: cell-based; details: Aprepitant 1, 5 and 7 nM, vs cells grown in the absence of antagonist, time dependant
# Procedure: as §1
# [3] = system: Human B cell lymphoma BC-1; assay: MTS cell proliferation, nanomolar antagonist, BC-1; format: cell-based; details: Aprepitant 1, 5 and 7 nM, vs cells grown in the absence of antagonist, time dependant
# Procedure: as §1
# brain tumours = details: Aprepitant 3 mg per kilogram of weight and day; mice; Lewis et al. 2013; cited from earlier work
# [4] = system: Human neuroblastoma KELLY; assay: MTS cell proliferation, nanomolar antagonist, KELLY; format: cell-based; details: Aprepitant 1, 5 and 7 nM, vs cells grown in the absence of antagonist, time dependant
# Procedure: as §1
# [5] = Aprepitant 10 mg/kg/day, 7 days
# [6] = Aprepitant 10 mg/kg/day, 14 days
# [7] = Aprepitant 10 mg/kg/day, 21 days
# [8] = Aprepitant 10 mg/kg/day, 28 days
# [9] = Aprepitant 20 mg/kg/day, 7 days
# [10] = Aprepitant 20 mg/kg/day, 14 days
# [11] = Aprepitant 20 mg/kg/day, 21 days
# [12] = Aprepitant 20 mg/kg/day, 28 days
# [13] = Aprepitant 30 mg/kg/day, 7 days
# [14] = Aprepitant 30 mg/kg/day, 14 days
# [15] = Aprepitant 30 mg/kg/day, 21 days
# [16] = Aprepitant 30 mg/kg/day, 28 days
# [17] = Aprepitant 40 mg/kg/day, 7 days
# [18] = Aprepitant 40 mg/kg/day, 14 days
# [19] = Aprepitant 40 mg/kg/day, 21 days
# [20] = Aprepitant 40 mg/kg/day, 28 days
# [21] = Aprepitant 50 mg/kg/day, 7 days
# [22] = Aprepitant 50 mg/kg/day, 14 days
# [23] = Aprepitant 50 mg/kg/day, 21 days
# [24] = Aprepitant 50 mg/kg/day, 28 days
# [25] = Aprepitant 60 mg/kg/day, 7 days
# [26] = Aprepitant 60 mg/kg/day, 14 days
# [27] = Aprepitant 60 mg/kg/day, 21 days
# [28] = Aprepitant 60 mg/kg/day, 28 days
# [29] = Aprepitant 70 mg/kg/day, 7 days
# [30] = Aprepitant 70 mg/kg/day, 14 days
# [31] = Aprepitant 70 mg/kg/day, 21 days
# [32] = Aprepitant 70 mg/kg/day, 28 days
# [33] = Aprepitant 80 mg/kg/day, 7 days
# [34] = Aprepitant 80 mg/kg/day, 14 days
# [35] = Aprepitant 80 mg/kg/day, 21 days
# [36] = Aprepitant 80 mg/kg/day, 28 days
structure (smiles),measurement,setting,value
C[C@@H](O[C@H]1OCCN(Cc2n[nH]c(=O)[nH]2)[C@H]1c1ccc(F)cc1)c1cc(C(F)(F)F)cc(C(F)(F)F)c1 [Aprepitant],Proliferation of tumour cells (MTS),Human glioma GAMG,increase was observed of proliferation
same,Tumour size (mean volume of the tumour),[1]; [5],180 ± 4 cubic millimeters
same,Tumour size (mean volume of the tumour),[1]; [6],165 ± 6 cubic millimeters
same,Tumour size (mean volume of the tumour),[1]; [7],140 ± 5 cubic millimeters
same,Tumour size (mean volume of the tumour),[1]; [8],120 ± 2 cubic millimeters
same,Tumour size (mean volume of the tumour),[1]; [9],175 ± 7 cubic millimeters
same,Tumour size (mean volume of the tumour),[1]; [10],155 ± 7 cubic millimeters
same,Tumour size (mean volume of the tumour),[1]; [11],130 ± 4 cubic millimeters
same,Tumour size (mean volume of the tumour),[1]; [12],105 ± 4 cubic millimeters
same,Tumour size (mean volume of the tumour),[1]; [13],160 ± 3 cubic millimeters
same,Tumour size (mean volume of the tumour),[1]; [14],145 ± 3 cubic millimeters
same,Tumour size (mean volume of the tumour),[1]; [15],115 ± 3 cubic millimeters
same,Tumour size (mean volume of the tumour),[1]; [16],90 ± 6 cubic millimeters
same,Tumour size (mean volume of the tumour),[1]; [17],155 ± 6 cubic millimeters
same,Tumour size (mean volume of the tumour),[1]; [18],130 ± 6 cubic millimeters
same,Tumour size (mean volume of the tumour),[1]; [19],105 ± 7 cubic millimeters
same,Tumour size (mean volume of the tumour),[1]; [20],75 ± 8 cubic millimeters
same,Tumour size (mean volume of the tumour),[1]; [21],140 ± 4 cubic millimeters
same,Tumour size (mean volume of the tumour),[1]; [22],110 ± 5 cubic millimeters
same,Tumour size (mean volume of the tumour),[1]; [23],95 ± 7 cubic millimeters
same,Tumour size (mean volume of the tumour),[1]; [24],60 ± 5 cubic millimeters
same,Tumour size (mean volume of the tumour),[1]; [25],130 ± 5 cubic millimeters
same,Tumour size (mean volume of the tumour),[1]; [26],115 ± 7 cubic millimeters
same,Tumour size (mean volume of the tumour),[1]; [27],85 ± 3 cubic millimeters
same,Tumour size (mean volume of the tumour),[1]; [28],55 ± 9 cubic millimeters
same,Tumour size (mean volume of the tumour),[1]; [29],120 ± 6 cubic millimeters
same,Tumour size (mean volume of the tumour),[1]; [30],95 ± 8 cubic millimeters
same,Tumour size (mean volume of the tumour),[1]; [31],65 ± 6 cubic millimeters
same,Tumour size (mean volume of the tumour),[1]; [32],40 ± 5 cubic millimeters
same,Tumour size (mean volume of the tumour),[1]; [33],105 ± 7 cubic millimeters
same,Tumour size (mean volume of the tumour),[1]; [34],85 ± 6 cubic millimeters
same,Tumour size (mean volume of the tumour),[1]; [35],45 ± 5 cubic millimeters
same,Tumour size (mean volume of the tumour),[1]; [36],25 ± 6 cubic millimeters
same,Proliferation of tumour cells (MTS),Human breast cancer MT-3,increase was observed of proliferation
same,Tumour size (mean volume of the tumour),[2]; [5],235 ± 3 cubic millimeters
same,Tumour size (mean volume of the tumour),[2]; [6],215 ± 4 cubic millimeters
same,Tumour size (mean volume of the tumour),[2]; [7],190 ± 4 cubic millimeters
same,Tumour size (mean volume of the tumour),[2]; [8],170 ± 6 cubic millimeters
same,Tumour size (mean volume of the tumour),[2]; [9],210 ± 6 cubic millimeters
same,Tumour size (mean volume of the tumour),[2]; [10],200 ± 5 cubic millimeters
same,Tumour size (mean volume of the tumour),[2]; [11],175 ± 5 cubic millimeters
same,Tumour size (mean volume of the tumour),[2]; [12],150 ± 7 cubic millimeters
same,Tumour size (mean volume of the tumour),[2]; [13],195 ± 7 cubic millimeters
same,Tumour size (mean volume of the tumour),[2]; [14],185 ± 6 cubic millimeters
same,Tumour size (mean volume of the tumour),[2]; [15],160 ± 6 cubic millimeters
same,Tumour size (mean volume of the tumour),[2]; [16],140 ± 4 cubic millimeters
same,Tumour size (mean volume of the tumour),[2]; [17],175 ± 8 cubic millimeters
same,Tumour size (mean volume of the tumour),[2]; [18],160 ± 8 cubic millimeters
same,Tumour size (mean volume of the tumour),[2]; [19],140 ± 4 cubic millimeters
same,Tumour size (mean volume of the tumour),[2]; [20],110 ± 6 cubic millimeters
same,Tumour size (mean volume of the tumour),[2]; [21],160 ± 5 cubic millimeters
same,Tumour size (mean volume of the tumour),[2]; [22],150 ± 4 cubic millimeters
same,Tumour size (mean volume of the tumour),[2]; [23],125 ± 5 cubic millimeters
same,Tumour size (mean volume of the tumour),[2]; [24],100 ± 7 cubic millimeters
same,Tumour size (mean volume of the tumour),[2]; [25],145 ± 6 cubic millimeters
same,Tumour size (mean volume of the tumour),[2]; [26],135 ± 5 cubic millimeters
same,Tumour size (mean volume of the tumour),[2]; [27],115 ± 6 cubic millimeters
same,Tumour size (mean volume of the tumour),[2]; [28],85 ± 4 cubic millimeters
same,Tumour size (mean volume of the tumour),[2]; [29],125 ± 4 cubic millimeters
same,Tumour size (mean volume of the tumour),[2]; [30],105 ± 6 cubic millimeters
same,Tumour size (mean volume of the tumour),[2]; [31],90 ± 4 cubic millimeters
same,Tumour size (mean volume of the tumour),[2]; [32],80 ± 7 cubic millimeters
same,Tumour size (mean volume of the tumour),[2]; [33],100 ± 6 cubic millimeters
same,Tumour size (mean volume of the tumour),[2]; [34],95 ± 7 cubic millimeters
same,Tumour size (mean volume of the tumour),[2]; [35],65 ± 7 cubic millimeters
same,Tumour size (mean volume of the tumour),[2]; [36],65 ± 9 cubic millimeters
same,Proliferation of tumour cells (MTS),Human melanoma MEL HO,increase was observed of proliferation
same,Proliferation of tumour cells (MTS),Human lung cancer A-427,increase was observed of proliferation
same,Proliferation of tumour cells (MTS),[3],increase was observed of proliferation
same,Reduction in brain tumour size,brain tumours,does not cause a reduction in brain tumour sizes; also recorded: does not produce reduction in the size of brain tumours
same,Proliferation of tumour cells (MTS),[4],increase was observed of proliferation
